Results reported in US20120178815A1, “Compositions of (-)-E-10-OH-NT and Methods for Their Synthesis and Use” (Adolor Corporation, priority 2007, published 2012).
“Also recorded” adds a separate entry of the source. Read-outs that look alike come from different tables or passages of the source.

Key:
[1] = target: T1, human serotonin transporter (hSERT) (Homo sapiens, UniProt P31645); assay: 5HT transporter competitive binding assay, [3H]imipramine
T1 construct: expressed in transfected cells; host or cells: CHO cells (membranes)
Experimental: (§1) Bound radioactivity was determined by scintillation spectroscopy. […] The Ki values of the various test compounds were determined using standard methods.
as §1

[2] = target: T2, α2b adrenergic receptor (Homo sapiens, UniProt P18089); assay: α2b adrenergic receptor binding, [3H]RX821002; settings: read-out: Affinity at α2b adrenergic receptor, Ki
T2 construct: expressed in transfected cells; host or cells: CHO cells
Experimental: Nonspecific binding was determined in the presence of 100 μM (−)-epinephrine. Bound radioactivity was determined by scintillation spectroscopy.

[3] = system: L5 SNL rats, tactile allodynia; assay: L5-Single Nerve Ligation model of neuropathic pain (von Frey); format: in vivo, rat; settings: 30 mg/kg; for antiallodynic activity: i.p.
Experimental: Protocol. […] The test animals were placed in a Plexiglas chamber (10 cm×20 cm×25 cm) and habituated for 15 minutes. The chamber was positioned on top of a mesh screen so that von Frey monofilaments could be presented to the plantar surface of both hindpaws. Measurement of tactile sensitivity for each hindpaw were obtained using the up/down method (Dixon, 1980) with seven Frey monofilaments (0.4, 1, 2, 4, 6, 8 and 15 grams). Each trial started with a von Frey force of 2 grams delivered to the right hindpaw for approximately 1-2 seconds and then the left hindpaw. If there was no withdrawal response, the next higher force was delivered. If there was a response, the next lower force was delivered. This procedure was performed until no response was made at the highest force (15 grams) or until four stimuli were administered following the initial response. Each test group contained 8 animals. The sham-operated control group, which were operated on but not subject to nerve ligation, contained 4 animals. All animals were tested at 60 minutes, and 240 minutes, post-administration of test compounds.
The 50% paw withdrawal threshold for each paw was calculated using the following formula: [Xth] log=[vFr] log+ky where [vFr] is the force of the last von Frey used, k=0.2249 which is the average interval (in log units) between the von Frey monofilaments, and y is a value that depends upon the pattern of withdrawal responses (Dixon, 1980). […] Testing for tactile sensitivity was performed twice and the mean 50% withdrawal value assigned as the tactile sensitivity for the right and left paws for each animal.
The E-10-OH-NT compounds were administered as either a maleate or succinate salt. AT was administered as a hydrochloride salt. Dosage amounts are based on the amount of free base. The test animals were placed in a Plexiglas chamber (10 cm×20 cm×25 cm) and habituated for 15 minutes. The chamber was positioned on top of a mesh screen so that von Frey monofilaments could be presented to the plantar surface of both hindpaws. Measurement of tactile sensitivity for each hindpaw were obtained using the up/down method (Dixon, 1980) with seven Frey monofilaments (0.4, 1, 2, 4, 6, 8 and 15 grams). Each trial started with a von Frey force of 2 grams delivered to the right hindpaw for approximately 1-2 seconds and then the left hindpaw. If there was no withdrawal response, the next higher force was delivered. If there was a response, the next lower force was delivered. This procedure was performed until no response was made at the highest force (15 grams) or until four stimuli were administered following the initial response. Each test group contained 8 animals. The sham-operated control group, which were operated on but not subject to nerve ligation, contained 4 animals. […]

[4] = target: human NE transporter (hNET) (Homo sapiens, UniProt P23975); assay: NE transporter competitive binding assay, [3H]nisoxetine
Experimental: (§2) Protocol. […] Bound radioactivity was determined by scintillation spectroscopy. Non-specific binding was defined as the amount of binding that occurred in the presence of 1.0 μM desipramine. The Ki values of the various test compounds were determined using standard methods.
as §2

[5] = target: T3, human muscarinic receptor M1 (Homo sapiens, UniProt P11229); assay: Muscarinic M1 receptor binding, [3H]pirenzepine; settings: read-out: Affinity for Muscarinic Receptors, M1, Ki
T3 construct: expressed in transfected cells; host or cells: CHO cells (membranes)
Experimental: Protocol. […] Bound radioactivity was determined by scintillation spectroscopy. Non-specific binding was defined as the amount of bound radioligand in the presence of 1.0 μM atropine. Radioligand for the M1 receptor was [^3H]pirenzepine (2 nM). Radioligand for the M2 receptor was [^3H]AF-DX384 (2 nM). Radioligand for the M3, M4, and M5 receptors was [^3H]4-DAMP.

[6] = system: gastrointestinal transit in Swiss-Webster mice; assay: Mouse gastrointestinal transit (charcoal meal) assay; format: in vivo; settings: relative to sterile water vehicle, 1, 2 or 4 hours before charcoal meal
Experimental: Protocol. The inhibitory effect of AT, NT and (−)-E-10-OH-NT were assessed in a rodent model of gastrointestinal transit. For the assay, male Swiss-Webster mice (20-25 g) were fasted overnight and treated with test compound or sterile water vehicle control 1, 2 or 4 hours before per oral administration of a charcoal meal consisting of charcoal:flour:water (1:2:8, w:w:w). Gastrointestinal transit was measured 25 minutes after the charcoal meal. (−)-E-10-OH-NT was administered as either the maleate or succinate salt; AT and NT were administered as hydrochloride salts; the dosage amounts are based on the amount of free base.
Gastrointestinal transit (GIT) was determined by removing the entire length of the small intestine and measuring how far the leading edge of the charcoal meal traveled in the small intestine. The percent GIT (% GIT) was determined by the following formula:
% GIT=[distance to charcoal leading edge (cm)/length of small intestine (cm)×100]

[7] = target: T4, 5HT uptake, rat brain synaptosomes (Rattus norvegicus, UniProt P31652); assay: Inhibition of [3H]-5HT uptake into synaptosomes; format: biochemical; settings: read-out: Monoamine Uptake Inhibition, 5HT, IC50
T4 construct: into rat brain synaptosomes; from tissue; host or cells: rat brain synaptosomes

[8] = Example 4, read-out: Monoamine Transporter Affinity, 5HT, Ki
[9] = Example 4, read-out: Monoamine Transporter Affinity, NE, Ki

human NE transporter (hNET), sequence (P23975 whole entry): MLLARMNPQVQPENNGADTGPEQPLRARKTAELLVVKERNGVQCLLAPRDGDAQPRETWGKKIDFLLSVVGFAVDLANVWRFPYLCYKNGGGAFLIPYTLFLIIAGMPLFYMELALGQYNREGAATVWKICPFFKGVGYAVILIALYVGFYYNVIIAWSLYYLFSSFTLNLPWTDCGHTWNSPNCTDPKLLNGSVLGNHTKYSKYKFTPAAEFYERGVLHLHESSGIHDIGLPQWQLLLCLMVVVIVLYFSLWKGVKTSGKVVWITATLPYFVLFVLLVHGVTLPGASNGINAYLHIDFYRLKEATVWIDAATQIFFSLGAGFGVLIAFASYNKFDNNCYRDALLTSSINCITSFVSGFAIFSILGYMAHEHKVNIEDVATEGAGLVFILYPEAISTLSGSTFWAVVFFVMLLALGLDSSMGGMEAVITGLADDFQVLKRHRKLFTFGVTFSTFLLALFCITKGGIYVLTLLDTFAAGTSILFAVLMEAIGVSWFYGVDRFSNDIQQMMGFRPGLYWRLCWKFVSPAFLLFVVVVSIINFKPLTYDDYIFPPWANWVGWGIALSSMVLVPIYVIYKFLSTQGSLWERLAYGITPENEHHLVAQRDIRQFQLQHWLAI
T1 sequence (P31645 whole entry): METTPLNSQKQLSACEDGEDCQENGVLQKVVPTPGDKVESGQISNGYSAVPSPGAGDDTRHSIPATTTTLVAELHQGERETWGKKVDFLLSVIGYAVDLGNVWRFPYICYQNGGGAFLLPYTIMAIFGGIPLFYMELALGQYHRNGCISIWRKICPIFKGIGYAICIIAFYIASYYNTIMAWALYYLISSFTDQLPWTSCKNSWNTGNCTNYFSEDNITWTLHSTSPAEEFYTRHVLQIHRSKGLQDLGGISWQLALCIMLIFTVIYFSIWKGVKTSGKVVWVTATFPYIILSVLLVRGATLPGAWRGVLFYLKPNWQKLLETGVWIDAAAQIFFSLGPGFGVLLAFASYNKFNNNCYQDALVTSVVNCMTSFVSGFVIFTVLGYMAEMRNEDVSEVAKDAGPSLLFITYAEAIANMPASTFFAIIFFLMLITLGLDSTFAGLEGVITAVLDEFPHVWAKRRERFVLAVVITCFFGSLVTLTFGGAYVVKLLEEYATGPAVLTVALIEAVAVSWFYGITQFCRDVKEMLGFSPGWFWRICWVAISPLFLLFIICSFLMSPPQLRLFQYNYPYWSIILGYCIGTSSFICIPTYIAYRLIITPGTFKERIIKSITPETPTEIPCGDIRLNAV
T3 sequence (P11229 whole entry): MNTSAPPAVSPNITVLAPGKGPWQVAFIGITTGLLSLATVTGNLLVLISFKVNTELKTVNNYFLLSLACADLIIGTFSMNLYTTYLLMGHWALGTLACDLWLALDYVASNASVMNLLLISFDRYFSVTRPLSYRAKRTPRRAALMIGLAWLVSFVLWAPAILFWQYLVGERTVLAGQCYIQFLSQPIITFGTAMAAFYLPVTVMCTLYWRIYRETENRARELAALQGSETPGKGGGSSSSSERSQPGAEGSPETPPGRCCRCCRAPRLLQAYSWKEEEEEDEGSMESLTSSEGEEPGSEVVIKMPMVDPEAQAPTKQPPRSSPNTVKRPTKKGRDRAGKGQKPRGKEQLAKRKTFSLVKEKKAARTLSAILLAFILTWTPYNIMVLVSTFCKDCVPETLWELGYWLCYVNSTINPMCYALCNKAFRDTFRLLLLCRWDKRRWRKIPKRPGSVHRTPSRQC
T2 sequence (P18089 whole entry): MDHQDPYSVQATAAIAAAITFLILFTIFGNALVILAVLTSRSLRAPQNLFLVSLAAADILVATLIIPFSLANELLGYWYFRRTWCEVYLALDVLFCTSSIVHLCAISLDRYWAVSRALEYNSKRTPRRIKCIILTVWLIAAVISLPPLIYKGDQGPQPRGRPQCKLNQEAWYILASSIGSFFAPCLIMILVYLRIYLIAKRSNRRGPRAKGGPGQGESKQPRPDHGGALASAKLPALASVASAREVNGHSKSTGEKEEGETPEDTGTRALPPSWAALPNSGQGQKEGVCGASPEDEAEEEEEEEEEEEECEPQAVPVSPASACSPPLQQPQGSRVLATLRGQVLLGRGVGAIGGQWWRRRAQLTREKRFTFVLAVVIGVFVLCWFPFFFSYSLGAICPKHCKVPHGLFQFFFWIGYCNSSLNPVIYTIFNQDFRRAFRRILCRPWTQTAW
T4 sequence (P31652 whole entry): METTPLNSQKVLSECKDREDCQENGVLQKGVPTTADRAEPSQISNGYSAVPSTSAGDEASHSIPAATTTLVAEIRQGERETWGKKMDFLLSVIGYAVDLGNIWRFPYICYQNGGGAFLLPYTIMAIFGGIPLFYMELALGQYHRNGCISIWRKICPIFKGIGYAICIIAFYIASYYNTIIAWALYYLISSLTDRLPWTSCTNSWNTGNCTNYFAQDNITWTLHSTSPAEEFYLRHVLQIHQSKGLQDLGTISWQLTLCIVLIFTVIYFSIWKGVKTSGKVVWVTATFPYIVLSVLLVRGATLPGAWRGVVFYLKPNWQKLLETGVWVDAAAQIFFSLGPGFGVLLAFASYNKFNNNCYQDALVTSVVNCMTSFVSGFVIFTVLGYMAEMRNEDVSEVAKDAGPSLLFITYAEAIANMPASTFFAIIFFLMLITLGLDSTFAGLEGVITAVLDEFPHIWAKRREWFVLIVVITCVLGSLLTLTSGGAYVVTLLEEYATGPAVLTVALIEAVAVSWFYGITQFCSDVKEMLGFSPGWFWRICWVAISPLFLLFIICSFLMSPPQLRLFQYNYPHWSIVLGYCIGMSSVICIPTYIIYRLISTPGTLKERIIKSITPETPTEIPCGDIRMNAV

Row | SMILES | Ki [1, 8] | Ki ([1]; Example 14, read-out: SERT Ki) | Ki [2] | antiallodynic activity [3] | antiallodynic activity, oral ([3]; p.o. and 60 mg/kg p.o.) | Ki [4, 9] | Ki ([4]; Example 14, read-out: NET Ki) | Ki [5] | inhibition of gastrointestinal transit (% GIT) [6] | IC50 [7]
1 | CNCC/C=C1\c2ccccc2C[C@@H](O)c2ccccc21 (stereo in doubt) [(−)-E-10-OH-NT] | 660 nM | 617 nM | 4300 nM | statistically significant over that observed for the vehicle-treated control group; also recorded: greater than that observed for the vehicle-treated control group | greater than that observed for the vehicle-treated control | 44 nM | 81 nM | 410 nM | markedly lower inhibition of transit as compared to both AT and NT | 4400 nM
2 | CNCC/C=C1\c2ccccc2C[C@H](O)c2ccccc21 (stereo in doubt) [(+)-E-10-OH-NT] | 400 nM | 361 nM | 4200 nM | comparable to that of the vehicle-only control | – | 52 nM | 95 nM | 710 nM | – | 860 nM
